Experimental data as given in patent US20240109917A1 (ACTELION PHARMACEUTICALS LTD, priority 2020, published 2024).

How the values were obtained:
VEGFR2, unphosphorylated = VEGFR2, unphosphorylated (Homo sapiens (Human), UniProt P35968); test: VEGFR ADP GLO Assay; type: biochemical
[1] = biological target: Tb-labeled inactive PDGFRβ (Homo sapiens (Human), UniProt P09619); test: PDGFRβ LanthaScreen Assay; type: binding; conditions: read-out: PDGFR Lantha IC50
Chain of Tb-labeled inactive PDGFRβ (P09619 33-1106): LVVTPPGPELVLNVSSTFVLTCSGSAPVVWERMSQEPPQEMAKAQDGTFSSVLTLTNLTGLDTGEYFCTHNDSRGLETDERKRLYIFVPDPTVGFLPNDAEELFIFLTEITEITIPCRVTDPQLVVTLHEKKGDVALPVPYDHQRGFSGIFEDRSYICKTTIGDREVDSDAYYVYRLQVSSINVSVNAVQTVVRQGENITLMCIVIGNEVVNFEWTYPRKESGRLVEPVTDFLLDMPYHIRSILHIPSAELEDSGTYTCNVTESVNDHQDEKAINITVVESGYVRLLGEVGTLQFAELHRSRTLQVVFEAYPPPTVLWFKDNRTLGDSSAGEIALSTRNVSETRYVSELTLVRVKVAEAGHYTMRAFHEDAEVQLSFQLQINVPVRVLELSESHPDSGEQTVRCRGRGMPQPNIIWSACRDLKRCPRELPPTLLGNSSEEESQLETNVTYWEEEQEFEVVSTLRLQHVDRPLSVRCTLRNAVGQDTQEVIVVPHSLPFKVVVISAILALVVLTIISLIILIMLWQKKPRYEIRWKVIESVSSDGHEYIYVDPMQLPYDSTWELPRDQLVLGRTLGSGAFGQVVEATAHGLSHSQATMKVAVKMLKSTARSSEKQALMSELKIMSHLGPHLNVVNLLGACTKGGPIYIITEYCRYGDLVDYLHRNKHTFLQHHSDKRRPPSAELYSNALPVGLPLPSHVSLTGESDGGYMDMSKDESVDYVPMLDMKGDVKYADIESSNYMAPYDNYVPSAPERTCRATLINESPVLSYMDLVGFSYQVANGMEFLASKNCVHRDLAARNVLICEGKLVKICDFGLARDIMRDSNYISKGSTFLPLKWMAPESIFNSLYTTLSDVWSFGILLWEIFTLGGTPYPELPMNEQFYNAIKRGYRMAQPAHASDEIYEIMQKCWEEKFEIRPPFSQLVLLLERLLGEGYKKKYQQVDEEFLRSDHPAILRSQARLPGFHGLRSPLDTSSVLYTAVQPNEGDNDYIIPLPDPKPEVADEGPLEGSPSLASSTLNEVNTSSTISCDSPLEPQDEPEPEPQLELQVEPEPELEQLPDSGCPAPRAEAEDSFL

Chain of VEGFR2, unphosphorylated (P35968 20-1356): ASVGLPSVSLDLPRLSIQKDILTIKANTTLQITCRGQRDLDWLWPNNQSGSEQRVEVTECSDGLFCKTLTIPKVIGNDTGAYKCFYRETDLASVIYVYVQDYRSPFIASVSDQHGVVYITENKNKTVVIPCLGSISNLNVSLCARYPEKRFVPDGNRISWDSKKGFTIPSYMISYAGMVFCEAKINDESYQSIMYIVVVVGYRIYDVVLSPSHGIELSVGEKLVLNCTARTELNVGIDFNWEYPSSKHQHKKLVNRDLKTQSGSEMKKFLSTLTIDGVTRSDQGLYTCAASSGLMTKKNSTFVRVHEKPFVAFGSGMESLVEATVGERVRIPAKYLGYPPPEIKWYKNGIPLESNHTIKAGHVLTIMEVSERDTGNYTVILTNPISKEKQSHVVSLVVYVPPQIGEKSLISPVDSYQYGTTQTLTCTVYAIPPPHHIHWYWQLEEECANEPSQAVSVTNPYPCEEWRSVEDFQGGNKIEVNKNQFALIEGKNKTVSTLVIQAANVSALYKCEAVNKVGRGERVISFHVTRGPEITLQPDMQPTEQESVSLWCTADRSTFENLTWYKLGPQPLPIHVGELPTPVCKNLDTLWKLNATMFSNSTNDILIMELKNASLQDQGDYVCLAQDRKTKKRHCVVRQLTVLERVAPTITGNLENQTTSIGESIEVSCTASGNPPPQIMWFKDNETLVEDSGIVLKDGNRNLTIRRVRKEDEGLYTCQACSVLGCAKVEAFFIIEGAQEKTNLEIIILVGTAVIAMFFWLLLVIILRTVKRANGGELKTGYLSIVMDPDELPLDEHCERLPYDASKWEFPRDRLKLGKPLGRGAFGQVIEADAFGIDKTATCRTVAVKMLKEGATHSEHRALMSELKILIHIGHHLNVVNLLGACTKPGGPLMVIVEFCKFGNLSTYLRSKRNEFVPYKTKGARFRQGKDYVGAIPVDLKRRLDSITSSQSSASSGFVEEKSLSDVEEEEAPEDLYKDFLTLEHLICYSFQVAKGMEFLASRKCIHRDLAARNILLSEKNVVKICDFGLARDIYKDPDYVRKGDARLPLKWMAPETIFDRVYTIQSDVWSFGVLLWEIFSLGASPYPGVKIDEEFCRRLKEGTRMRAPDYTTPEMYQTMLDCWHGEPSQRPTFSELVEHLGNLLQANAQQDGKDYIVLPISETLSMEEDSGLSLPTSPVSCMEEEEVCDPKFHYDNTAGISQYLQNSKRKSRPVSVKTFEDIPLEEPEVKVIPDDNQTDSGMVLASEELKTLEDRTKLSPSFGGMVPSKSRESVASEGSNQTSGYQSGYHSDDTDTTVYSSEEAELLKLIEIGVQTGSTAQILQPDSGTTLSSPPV

SMILES	IC50 (VEGFR2, unphosphorylated) [nM]	IC50 [1] [nM]
Cc1ncc(NC(=O)CN2C[C@@H](CO)OC(C)(C)C2)cc1NC(=O)c1cnn2cc(-c3cnn(C)c3)sc12 [Example 377, (S)—N-(5-(2-(6-(hydroxymethyl)-2,2-dimethylmorpholino)acetamido)-2-methylpyridin-3-yl)-2-(1-methyl-1H-pyrazol-4-yl)pyrazolo[5,1-b]thiazole-7-carboxamide]	> 7500	6.2
Cc1ncc(NC(=O)C2CCN(C(C)C)C2)cc1NC(=O)c1cnn2cc(-c3cnn4c3OCCC4)sc12 (centres unmarked) [Example 350, 2-(6,7-dihydro-5H-pyrazolo[5,1-b][1,3]oxazin-3-yl)-N-(5-(1-isopropylpyrrolidine-3-carboxamido)-2-methylpyridin-3-yl)pyrazolo[5,1-b]thiazole-7-carboxamide]	6350	4.1
COc1cccc(-c2cn3ncc(C(=O)Nc4cc(NC(=O)CN5CC(C)(C)C5)cnc4C)c3s2)n1 [Example 394, N-(5-(2-(3,3-dimethylazetidin-1-yl)acetamido)-2-methylpyridin-3-yl)-2-(6-methoxypyridin-2-yl)pyrazolo[5,1-b]thiazole-7-carboxamide]	> 7500	1.2
COc1ncccc1-c1cn2ncc(C(=O)Nc3cc(NC(=O)CN4C[C@H](C)O[C@@H](C)C4)cnc3C)c2s1 (relative stereo) [Example 368, N-(5-(2-(trans-2,6-dimethylmorpholino)acetamido)-2-methylpyridin-3-yl)-2-(2-methoxypyridin-3-yl)pyrazolo[5,1-b]thiazole-7-carboxamide]	> 7500	2.4
Cc1ncc(S(=O)(=O)NCCN2CCCC2(C)C)cc1NC(=O)c1cnn2cc(-c3cnn(C)c3)sc12 [Example 359, N-(5-(N-(2-(2,2-dimethylpyrrolidin-1-yl)ethyl)sulfamoyl)-2-methylpyridin-3-yl)-2-(1-methyl-1H-pyrazol-4-yl)pyrazolo[5,1-b]thiazole-7-carboxamide]	> 7500	451
Cc1ncc(NC(=O)[C@@H]2CCCN2C)cc1NC(=O)c1cnn2cc(-c3cnn4c3OCCC4)sc12 [Example 349, (S)-2-(6,7-dihydro-5H-pyrazolo[5,1-b][1,3]oxazin-3-yl)-N-(2-methyl-5-(1-methylpyrrolidine-2-carboxamido)pyridin-3-yl)pyrazolo[5,1-b]thiazole-7-carboxamide]	> 7500	8.7
CCn1nccc1-c1cn2ncc(C(=O)Nc3cc(NC(=O)CN4CC(C)(C)C4)cnc3C)c2s1 [Example 388, N-(5-(2-(3,3-dimethylazetidin-1-yl)acetamido)-2-methylpyridin-3-yl)-2-(1-ethyl-1H-pyrazol-5-yl)pyrazolo[5,1-b]thiazole-7-carboxamide]	> 7500	7.4
Cc1ncc(NC(=O)C[C@H]2CCCN2C(C)C)cc1NC(=O)c1cnn2cc(-c3cnn4c3OCCC4)sc12 [Example 351, (R)-2-(6,7-dihydro-5H-pyrazolo[5,1-b][1,3]oxazin-3-yl)-N-(5-(2-(1-isopropylpyrrolidin-2-yl)acetamido)-2-methylpyridin-3-yl)pyrazolo[5,1-b]thiazole-7-carboxamide]	> 7500	3.1
Cc1ncc(NC(=O)CN2C[C@H](C)O[C@@H](C)C2)cc1NC(=O)c1cnn2cc(-c3cc[nH]n3)sc12 (relative stereo) [Example 374, N-(5-(2-(trans-2,6-dimethylmorpholino)acetamido)-2-methylpyridin-3-yl)-2-(1H-pyrazol-3-yl)pyrazolo[5,1-b]thiazole-7-carboxamide]	> 7500	4
COc1ncccc1-c1cn2ncc(C(=O)Nc3cc(NC(=O)CN4CCC4)cnc3C)c2s1 [Example 397, N-(5-(2-(azetidin-1-yl)acetamido)-2-methylpyridin-3-yl)-2-(2-methoxypyridin-3-yl)pyrazolo[5,1-b]thiazole-7-carboxamide]	> 7500	22.1
COCCn1cc(-c2cn3ncc(C(=O)Nc4cc(NC(=O)CN5C6CCC5CC6)cnc4C)c3s2)cn1 [Example 340, N-(5-(2-(7-azabicyclo[2.2.1]heptan-7-yl)acetamido)-2-methylpyridin-3-yl)-2-(1-(2-methoxyethyl)-1H-pyrazol-4-yl)pyrazolo[5,1-b]thiazole-7-carboxamide]	> 7500	7.5
Cc1ncc(NC(=O)CN2C[C@H](C)O[C@@H](C)C2)cc1NC(=O)c1cnn2cc(-c3c[nH]nc3C)sc12 (relative stereo) [Example 371, N-(5-(2-(trans-2,6-dimethylmorpholino)acetamido)-2-methylpyridin-3-yl)-2-(3-methyl-1H-pyrazol-4-yl)pyrazolo[5,1-b]thiazole-7-carboxamide]	> 2500	3
COc1ncc(-c2cn3ncc(C(=O)Nc4cc(NC(=O)CN5CC(C)(C)C5)cnc4C)c3s2)c(OC)n1 [Example 392, 2-(2,4-dimethoxypyrimidin-5-yl)-N-(5-(2-(3,3-dimethylazetidin-1-yl)acetamido)-2-methylpyridin-3-yl)pyrazolo[5,1-b]thiazole-7-carboxamide]	7440	4.6
COc1ncccc1-c1cn2ncc(C(=O)Nc3cc(NC(=O)CN4CC(F)C4)cnc3C)c2s1 [Example 402, N-(5-(2-(3-fluoroazetidin-1-yl)acetamido)-2-methylpyridin-3-yl)-2-(2-methoxypyridin-3-yl)pyrazolo[5,1-b]thiazole-7-carboxamide]	> 7500	2.7
COc1cc(-c2cn3ncc(C(=O)Nc4cc(NC(=O)CN5CC(C)(C)C5)cnc4C)c3s2)c(OC)nn1 [Example 393, 2-(3,6-dimethoxypyridazin-4-yl)-N-(5-(2-(3,3-dimethylazetidin-1-1)acetamido)-2-methylpyridin-3-yl)pyrazolo[5,1-b]thiazole-7-carboxamide]	> 7500	5.1
Cc1ncc(NC(=O)CN2CCC3(CC2)CC3)cc1NC(=O)c1cnn2cc(-c3cnn(CCO)c3)sc12 [Example 31, N-(5-(2-(6-azaspiro[2.5]octan-6-yl)acetamido)-2-methylpyridin-3-yl)-2-(1-(2-hydroxyethyl)-1H-pyrazol-4-yl)pyrazolo[5,1-b]thiazole-7-carboxamide]	> 7500	5.1
Cc1ncc(NC(=O)C2CCN(C(C)C)C2)cc1NC(=O)c1cnn2cc(-c3cnn(C)c3C)sc12 (centres unmarked) [Example 356, 2-(1,5-dimethyl-1H-pyrazol-4-yl)-N-(5-(1-isopropylpyrrolidine-3-carboxamido)-2-methylpyridin-3-yl)pyrazolo[5,1-b]thiazole-7-carboxamide]	> 7500	17.9
COc1ncccc1-c1cn2ncc(C(=O)Nc3cc(NC(=O)CN4CC(C)C4)cnc3C)c2s1 [Example 405, 2-(2-methoxypyridin-3-yl)-N-(2-methyl-5-(2-(3-methylazetidin-1-yl)acetamido)pyridin-3-yl)pyrazolo[5,1-b]thiazole-7-carboxamide]	6660	3.9
COc1ncccc1-c1cn2ncc(C(=O)Nc3cc(NC(=O)CN4C[C@H](C)O[C@@H](C)C4)cnc3C)c2s1 (relative stereo) [Example 384, N-(5-(2-(trans-2,6-dimethylmorpholino)acetamido)-2-methylpyridin-3-yl)-2-(2-methoxypyridin-3-yl)pyrazolo[5,1-b]thiazole-7-carboxamide]	> 833	2.3
